Measured values from the supplement of paper PMC10307832.

Key:
Test in all cases: relative viability (nuclei count vs DMSO), 5 days (fraction); higher = more cells survive
[1] = compound: CN(C)C[C@@H]1CCn2cc(c3ccccc32)C2=C(C(=O)NC2=O)c2cn(c3ccccc23)CCO1 [Ruboxistaurin] + C[C@@H](Oc1cc(-c2cnn(C3CCNCC3)c2)cnc1N)c1c(Cl)ccc(F)c1Cl [Crizotinib] (partner 1 µM)
How it was run: (§1)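 Lung cancer cell lines were seeded in 1536-well plates and dosed by pin tool the next day, with either a single drug or a fixed anchor-drug dose combined with five library-drug doses (not always all listed) spaced in √10 steps. Five days later, one step fixed the cells and stained their nuclei (final 0.05% Triton X-100, 1% formaldehyde, 1 ug/ml Hoechst), and nuclei were counted on 4× images. Relative viability is the nuclei count in treated wells divided by the count in vehicle wells, and each value is the median of duplicate plates.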

[2] = compound: CN(C)C[C@@H]1CCn2cc(c3ccccc32)C2=C(C(=O)NC2=O)c2cn(c3ccccc23)CCO1 [Ruboxistaurin] + C[C@]1(O)C[C@@H](c2nc(-c3ccc4ccc(-c5ccccc5)nc4c3)c3c(N)nccn32)C1 [Linsitinib] (partner 1 µM)
How it was run: as §1

[3] = compound: CN(C)C[C@@H]1CCn2cc(c3ccccc32)C2=C(C(=O)NC2=O)c2cn(c3ccccc23)CCO1 [Ruboxistaurin] + CCNC(=O)c1noc(-c2cc(C(C)C)c(O)cc2O)c1-c1ccc(CN2CCOCC2)cc1 [Luminespib] (partner 0.01 µM)
How it was run: as §1

[4] = compound: CN(C)C[C@@H]1CCn2cc(c3ccccc32)C2=C(C(=O)NC2=O)c2cn(c3ccccc23)CCO1 [Ruboxistaurin] + O=C(CCCCCCC(=O)Nc1ccccc1)NO [Vorinostat] (partner 1 µM)
How it was run: as §1

[5] = compound: CN(C)C[C@@H]1CCn2cc(c3ccccc32)C2=C(C(=O)NC2=O)c2cn(c3ccccc23)CCO1 [Ruboxistaurin]
How it was run: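 Viability here means nuclei in treated wells divided by nuclei in vehicle wells, reported as the median across plates. Only plates with control CV below 25% and at least one doubling passed. Lung cancer cell lines in 1536-well plates were exposed to five √10-spaced library-drug doses for 5 days and counted from 4× Hoechst images in MetaXpress.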

201T
relative viability ([1]; first compound 0.08 µM): 1.05 | relative viability ([1]; first compound 0.8 µM): 0.972 | relative viability ([1]; first compound 2.53 µM): 1.08 | relative viability ([1]; first compound 8 µM): 1.05 | relative viability ([2]; first compound 0.08 µM): 1.03 | relative viability ([2]; first compound 0.8 µM): 0.874 | relative viability ([2]; first compound 2.53 µM): 1.06 | relative viability ([2]; first compound 8 µM): 0.891 | relative viability ([3]; first compound 0.08 µM): 1.09 | relative viability ([3]; first compound 0.8 µM): 1.01 | relative viability ([3]; first compound 2.53 µM): 1.09 | relative viability ([3]; first compound 8 µM): 1 | relative viability ([4]; first compound 0.08 µM): 1 | relative viability ([4]; first compound 0.8 µM): 0.961 | relative viability ([4]; first compound 2.53 µM): 1.05 | relative viability ([4]; first compound 8 µM): 1.03 | relative viability ([5]; 0.08 µM): 1.03 | relative viability ([5]; 0.8 µM): 0.98 | relative viability ([5]; 2.53 µM): 1.01 | relative viability ([5]; 8 µM): 0.973

A549
relative viability ([1]; first compound 0.08 µM): 0.751 | relative viability ([1]; first compound 0.8 µM): 0.631 | relative viability ([1]; first compound 2.53 µM): 0.862 | relative viability ([1]; first compound 8 µM): 0.679 | relative viability ([2]; first compound 0.08 µM): 0.685 | relative viability ([2]; first compound 0.8 µM): 0.562 | relative viability ([2]; first compound 2.53 µM): 0.61 | relative viability ([2]; first compound 8 µM): 0.458 | relative viability ([5]; 0.08 µM): 1.05 | relative viability ([5]; 0.8 µM): 0.9 | relative viability ([5]; 2.53 µM): 1 | relative viability ([5]; 8 µM): 0.83

A-427
relative viability ([1]; first compound 0.08 µM): 1.01 | relative viability ([1]; first compound 0.8 µM): 0.676 | relative viability ([1]; first compound 2.53 µM): 0.911 | relative viability ([1]; first compound 8 µM): 0.732 | relative viability ([2]; first compound 0.08 µM): 1.1 | relative viability ([2]; first compound 0.8 µM): 1.08 | relative viability ([2]; first compound 2.53 µM): 0.992 | relative viability ([2]; first compound 8 µM): 0.925 | relative viability ([3]; first compound 0.08 µM): 0.974 | relative viability ([3]; first compound 0.8 µM): 0.757 | relative viability ([3]; first compound 2.53 µM): 0.869 | relative viability ([3]; first compound 8 µM): 0.611 | relative viability ([4]; first compound 0.08 µM): 0.826 | relative viability ([4]; first compound 0.8 µM): 0.824 | relative viability ([4]; first compound 2.53 µM): 0.872 | relative viability ([4]; first compound 8 µM): 0.838 | relative viability ([5]; 0.08 µM): 0.997 | relative viability ([5]; 0.8 µM): 0.871 | relative viability ([5]; 2.53 µM): 0.924 | relative viability ([5]; 8 µM): 0.821

ABC-1
relative viability ([1]; first compound 0.08 µM): 1.41 | relative viability ([1]; first compound 0.8 µM): 0.45 | relative viability ([1]; first compound 2.53 µM): 1.29 | relative viability ([1]; first compound 8 µM): 0.784 | relative viability ([2]; first compound 0.08 µM): 0.767 | relative viability ([2]; first compound 0.8 µM): 0.865 | relative viability ([2]; first compound 2.53 µM): 0.969 | relative viability ([2]; first compound 8 µM): 0.625 | relative viability ([3]; first compound 0.08 µM): 0.773 | relative viability ([3]; first compound 0.8 µM): 0.823 | relative viability ([3]; first compound 2.53 µM): 0.564 | relative viability ([3]; first compound 8 µM): 0.669 | relative viability ([4]; first compound 0.08 µM): 1.22 | relative viability ([4]; first compound 0.8 µM): 1.11 | relative viability ([4]; first compound 2.53 µM): 1.27 | relative viability ([4]; first compound 8 µM): 1.07 | relative viability ([5]; 0.08 µM): 1.16 | relative viability ([5]; 0.8 µM): 0.951 | relative viability ([5]; 2.53 µM): 1.16 | relative viability ([5]; 8 µM): 0.89

BEN
relative viability ([1]; first compound 0.08 µM): 0.92 | relative viability ([1]; first compound 0.8 µM): 0.818 | relative viability ([1]; first compound 2.53 µM): 0.894 | relative viability ([1]; first compound 8 µM): 0.658 | relative viability ([2]; first compound 0.08 µM): 1.04 | relative viability ([2]; first compound 0.8 µM): 0.883 | relative viability ([2]; first compound 2.53 µM): 0.9 | relative viability ([2]; first compound 8 µM): 0.721 | relative viability ([3]; first compound 0.08 µM): 0.418 | relative viability ([3]; first compound 0.8 µM): 0.391 | relative viability ([3]; first compound 2.53 µM): 0.384 | relative viability ([3]; first compound 8 µM): 0.179 | relative viability ([4]; first compound 0.08 µM): 0.608 | relative viability ([4]; first compound 0.8 µM): 0.544 | relative viability ([4]; first compound 2.53 µM): 0.6 | relative viability ([4]; first compound 8 µM): 0.585 | relative viability ([5]; 0.08 µM): 1.05 | relative viability ([5]; 0.8 µM): 0.902 | relative viability ([5]; 2.53 µM): 0.877 | relative viability ([5]; 8 µM): 0.857

CAL-12T
relative viability ([1]; first compound 0.08 µM): 0.585 | relative viability ([1]; first compound 0.8 µM): 0.491 | relative viability ([1]; first compound 2.53 µM): 0.751 | relative viability ([1]; first compound 8 µM): 0.746 | relative viability ([2]; first compound 0.08 µM): 0.884 | relative viability ([2]; first compound 0.8 µM): 0.679 | relative viability ([2]; first compound 2.53 µM): 0.897 | relative viability ([2]; first compound 8 µM): 0.927 | relative viability ([3]; first compound 0.08 µM): 0.399 | relative viability ([3]; first compound 0.8 µM): 0.472 | relative viability ([3]; first compound 2.53 µM): 0.362 | relative viability ([3]; first compound 8 µM): 0.544 | relative viability ([4]; first compound 0.08 µM): 0.937 | relative viability ([4]; first compound 0.8 µM): 0.473 | relative viability ([4]; first compound 2.53 µM): 0.744 | relative viability ([4]; first compound 8 µM): 0.941 | relative viability ([5]; 0.08 µM): 1.15 | relative viability ([5]; 0.8 µM): 0.879 | relative viability ([5]; 2.53 µM): 1.03 | relative viability ([5]; 8 µM): 1.09

COR-L23
relative viability ([1]; first compound 0.08 µM): 0.725 | relative viability ([1]; first compound 0.8 µM): 0.621 | relative viability ([1]; first compound 2.53 µM): 0.689 | relative viability ([1]; first compound 8 µM): 0.777 | relative viability ([2]; first compound 0.08 µM): 0.928 | relative viability ([2]; first compound 0.8 µM): 0.815 | relative viability ([2]; first compound 2.53 µM): 1.03 | relative viability ([2]; first compound 8 µM): 0.851 | relative viability ([3]; first compound 0.08 µM): 0.799 | relative viability ([3]; first compound 0.8 µM): 0.55 | relative viability ([3]; first compound 2.53 µM): 0.714 | relative viability ([3]; first compound 8 µM): 0.632 | relative viability ([4]; first compound 0.08 µM): 0.61 | relative viability ([4]; first compound 0.8 µM): 0.442 | relative viability ([4]; first compound 2.53 µM): 0.522 | relative viability ([4]; first compound 8 µM): 0.501 | relative viability ([5]; 0.08 µM): 1.1 | relative viability ([5]; 0.8 µM): 0.955 | relative viability ([5]; 2.53 µM): 1.14 | relative viability ([5]; 8 µM): 1.17

COR-L 105
relative viability ([1]; first compound 0.08 µM): 0.8 | relative viability ([1]; first compound 0.8 µM): 0.828 | relative viability ([1]; first compound 2.53 µM): 0.868 | relative viability ([1]; first compound 8 µM): 0.664 | relative viability ([2]; first compound 0.08 µM): 1.17 | relative viability ([2]; first compound 0.8 µM): 0.75 | relative viability ([2]; first compound 2.53 µM): 0.78 | relative viability ([2]; first compound 8 µM): 0.696 | relative viability ([3]; first compound 0.08 µM): 1.06 | relative viability ([3]; first compound 0.8 µM): 0.784 | relative viability ([3]; first compound 2.53 µM): 0.681 | relative viability ([3]; first compound 8 µM): 0.941 | relative viability ([4]; first compound 0.08 µM): 0.96 | relative viability ([4]; first compound 0.8 µM): 0.925 | relative viability ([4]; first compound 2.53 µM): 0.842 | relative viability ([4]; first compound 8 µM): 0.816 | relative viability ([5]; 0.08 µM): 1.08 | relative viability ([5]; 0.8 µM): 0.803 | relative viability ([5]; 2.53 µM): 0.949 | relative viability ([5]; 8 µM): 0.782
